Assay [1] addresses native β-galactosidase (soluble; lacZ of Escherichia coli) (Escherichia coli, UniProt P00722). Briefly: β-galactosidase assay, KM for ONPG, native enzyme. It counts as biochemical. As to conditions: 0.1M sodium phosphate pH 7.5, room temperature, Michaelis-Menten curve through normalized data, FIG. 3. How it is done:
(§1) β-galactosidase assay. The assay is based on that of Sambrook, et al. (J. Sambrook, et al., "Molecular Cloning (A laboratory manual)", 2nd Ed. Cold Spring Harbor Laboratory Press, Cold Spring Harbor, New York, 1989) with minor modifications. The assay mixture contains 0.1M sodium phosphate, pH 7.5, containing 3 mM o-nitrophenyl β-D-galactopyranoside […] (ONPG), 40.5 mM 2-mercaptoethanol and 90 μM MgCl2 in a total volume of 600 μL. Reactions were initiated by addition of enzyme, and carried out at room temperature unless otherwise noted. Activity was determined from the slopes of initial rates monitored at 420 nm. O-nitrophenol, the product of β-galactosidase-catalyzed hydrolysis of ONPG, has a molar extinction coefficient at 420 nm under assay conditions of 3.1×10^3 M^-1 cm^-1 (R. C. Weast, "Handbook of Chemistry and Physics", 60th ed. CRC Press, Boca Raton, Fla., 1979). β-galactosidase activity is reported in units of μmol ONPG hydrolyzed/min.
Catalytic properties of β-galactosidase in the spore coat. FIG. 3 diagrams KM values for native β-galactosidase (.circle-solid.) and the CotC-β-galactosidase fusion in the spore coat of spores from the cotC-lacZ fusion strain (.box-solid.). Data sets were normalized to the same Vmax value, set equal to 100. […]

Assay [2] deals with CotC-β-galactosidase fusion (47 codons of B. subtilis cotC, SEQ ID NO:4, fused to E. coli lacZ) in the spore coat of spores from the cotC-lacZ fusion strain of …. As to the kind of experiment: β-galactosidase assay, KM for ONPG, spore-immobilized fusion. It counts as biochemical, Escherichia coli / Bacillus subtilis. As to conditions: 0.1M sodium phosphate pH 7.5, room temperature, Michaelis-Menten curve through normalized data, FIG. 3. How it is done:
as §1
cot-lacZ fusions. Strains bearing the cotC-lacZ and cotD-lacZ fusions were generously provided by L. Kroos. […]
The cotC-lacZ fusion includes 355 bp upstream of the open reading frame of cotC and 47 codons of the open reading frame fused in frame to lacZ from plasmid pSGMU31. The cotD-lacZ fusion includes 237 upstream bp and 58 codons of the open reading frame of cotD. […]

The structures appear in SMILES notation.

Chain of native β-galactosidase (soluble; lacZ of Escherichia coli) (P00722 2-1024 limits assumed): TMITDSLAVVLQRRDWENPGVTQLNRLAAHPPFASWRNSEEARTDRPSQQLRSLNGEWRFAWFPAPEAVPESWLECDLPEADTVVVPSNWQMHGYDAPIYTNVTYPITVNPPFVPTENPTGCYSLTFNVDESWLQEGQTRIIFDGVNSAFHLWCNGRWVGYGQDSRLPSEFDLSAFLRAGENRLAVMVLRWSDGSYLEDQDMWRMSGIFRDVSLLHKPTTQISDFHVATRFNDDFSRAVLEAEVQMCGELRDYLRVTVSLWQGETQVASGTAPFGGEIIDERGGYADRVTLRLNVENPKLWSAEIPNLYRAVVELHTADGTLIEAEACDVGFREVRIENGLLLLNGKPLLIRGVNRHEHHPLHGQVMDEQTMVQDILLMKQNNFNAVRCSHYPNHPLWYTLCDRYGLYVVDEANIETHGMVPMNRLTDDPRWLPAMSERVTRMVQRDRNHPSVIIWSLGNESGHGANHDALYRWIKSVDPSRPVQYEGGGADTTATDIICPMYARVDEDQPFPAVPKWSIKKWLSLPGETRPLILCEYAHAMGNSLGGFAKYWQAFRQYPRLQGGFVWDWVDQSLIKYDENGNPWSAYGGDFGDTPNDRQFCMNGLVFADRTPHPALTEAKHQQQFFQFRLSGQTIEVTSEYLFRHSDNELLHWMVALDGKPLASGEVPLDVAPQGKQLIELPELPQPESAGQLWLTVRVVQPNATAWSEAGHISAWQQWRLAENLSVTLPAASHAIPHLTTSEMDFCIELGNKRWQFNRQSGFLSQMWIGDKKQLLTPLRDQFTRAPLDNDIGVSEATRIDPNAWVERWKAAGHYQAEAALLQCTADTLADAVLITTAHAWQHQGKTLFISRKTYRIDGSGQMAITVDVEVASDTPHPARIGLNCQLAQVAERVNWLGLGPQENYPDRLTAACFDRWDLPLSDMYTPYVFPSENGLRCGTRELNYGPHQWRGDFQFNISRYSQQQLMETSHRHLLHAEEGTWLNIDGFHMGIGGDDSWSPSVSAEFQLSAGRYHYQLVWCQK

Usually Km stands for the concentration of substrate that gives half-maximal velocity. Turning to `O=[N+]([O-])c1ccccc1O[C@@H]1O[C@H](COP(=O)(O)O)[C@H](O)[C@H](O)[C@H]1O` [ONPG, o-nitrophenyl β-D-galactopyranoside 6-phosphate], the Km in assay [1] and in assay [2] was 400 µM each time.

(Values after patent US5766914A, “Method of producing and purifying enzymes” (Michigan State University, priority 1995, dated 1998).)
